Source: paper PMC6934184, “Selective DNA-PKcs inhibition extends the therapeutic index of localized radiotherapy and chemotherapy” (The Journal of Clinical Investigation, 2019)

Target: T1, DYRK1A (Homo sapiens, UniProt Q13627)
T1 construct: purchased Thermo Fisher Scientific (Life Technologies) SelectScreen
Test: SelectScreen Z'LYTE
Type: biochemical
How it was run: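 SelectScreen broad panel; activity (Z'LYTE, Adapta) plus binding formats. ATP: Km app for CSF1R Z'LYTE; 10 for CAMK1 Adapta. Readout = % per kinase.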

Structure (SMILES): CN(C(=O)CN1CCOCC1)c1ccc2sc3c(-c4cccc5c(=O)cc(N6CC7CCC(C6)O7)oc45)cccc3c2c1 [NU5455]
- inhibition at 1 µM: 6.4%
